Test results: ChEMBL document CHEMBL1201862, “PubChem BioAssay data set” (2004)
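Step 1: Grow cells in 96-well plates. Step 2: Expose to compound for 48 hours at 5 concentrations. Step 3: Interpolate endpoints linearly; if unreached, use highest concentration. Abbreviation: GI50, concentration required for 50% inhibition of growth.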 The source made the active and inactive calls. Rule as the data show it: active = GI50 up to about 1.1 µM and inactive = higher.

Assays:
Assay in all cases: DTP human tumour cell line panel, 48 h
MOLT-4 = test system: MOLT-4
RXF 393 = test system: RXF 393
NCI-H522 = test system: NCI-H522
SK-OV-3 = test system: SK-OV-3
SF-268 = test system: SF-268
A498 = test system: A498
Malme-3M = test system: Malme-3M
HL-60 = test system: HL-60
NCI-H226 = test system: NCI-H226
HCT-116 = test system: HCT-116
CCRF-CEM = test system: CCRF-CEM
RPMI-8226 = test system: RPMI-8226
SF-295 = test system: SF-295
CAKI-1 = test system: CAKI-1
UO-31 = test system: UO-31
HOP-62 = test system: HOP-62
SW-620 = test system: SW-620
MDA-MB-231 = test system: MDA-MB-231
NCI/ADR-RES = test system: NCI/ADR-RES

Row | SMILES | GI50 (MOLT-4) | GI50 (RXF 393) | GI50 (NCI-H522) | GI50 (SK-OV-3) | GI50 (SF-268) | GI50 (A498) | GI50 (Malme-3M) | GI50 (HL-60) | GI50 (NCI-H226) | GI50 (HCT-116) | GI50 (CCRF-CEM) | GI50 (RPMI-8226) | GI50 (SF-295) | GI50 (CAKI-1) | GI50 (UO-31) | GI50 (HOP-62) | GI50 (SW-620) | GI50 (MDA-MB-231) | GI50 (NCI/ADR-RES)
1 | CCCCCCCSCC1C(=O)C23C(O)C1CCC2C12COC3(O)C(O)C1C(C)(C)CCC2O (stereo not given) | 3.3 µM (inactive) | 11.2 µM (inactive) | 1.4 µM (inactive) | 18.1 µM (inactive) | 10.8 µM (inactive) | 11.5 µM (inactive) | 14.1 µM (inactive) | 3.96 µM (inactive) | 17.7 µM (inactive) | 5.5 µM (inactive) | 2.75 µM (inactive) | 4.06 µM (inactive) | 17.9 µM (inactive) | 4.83 µM (inactive) | 11.2 µM (inactive) | 20.3 µM (inactive) | 0.881 µM (active) | – | –
2 | COC(=O)C12C34C=CC5(CCC6(C=CC1(CC3)O6)C52C(=O)OC)O4 (stereo not given) | > 100 µM (inactive) | 75 µM (inactive) | > 100 µM (inactive) | > 100 µM (inactive) | > 100 µM (inactive) | 93.3 µM (inactive) | > 100 µM (inactive) | > 100 µM (inactive) | > 100 µM (inactive) | > 100 µM (inactive) | > 100 µM (inactive) | – | > 100 µM (inactive) | > 100 µM (inactive) | – | > 100 µM (inactive) | > 100 µM (inactive) | – | –
3 | C/C(=N/NC(=O)C(N)=O)C(CC(C(=O)Nc1ccccc1C)/C(C)=N\NC(=O)C(N)=O)C(=O)Nc1ccccc1C (stereo not given) | 75.9 µM (inactive) | > 100 µM (inactive) | 66.4 µM (inactive) | > 100 µM (inactive) | > 100 µM (inactive) | > 100 µM (inactive) | > 100 µM (inactive) | > 100 µM (inactive) | > 100 µM (inactive) | – | > 100 µM (inactive) | > 100 µM (inactive) | > 100 µM (inactive) | > 100 µM (inactive) | 70.5 µM (inactive) | > 100 µM (inactive) | > 100 µM (inactive) | – | –
4 | CCCC/C=C1\CCC(C)(CN(C)C)C1=O (stereo not given) | > 100 µM (inactive) | 46.5 µM (inactive) | 28.9 µM (inactive) | – | > 100 µM (inactive) | > 100 µM (inactive) | > 100 µM (inactive) | 55.5 µM (inactive) | – | > 100 µM (inactive) | > 100 µM (inactive) | – | > 100 µM (inactive) | > 100 µM (inactive) | > 100 µM (inactive) | > 100 µM (inactive) | > 100 µM (inactive) | – | –
5 | CCOc1ccc(NC(=O)CCc2nnc(SC)o2)cc1 | > 100 µM (inactive) | > 100 µM (inactive) | > 100 µM (inactive) | > 100 µM (inactive) | > 100 µM (inactive) | > 100 µM (inactive) | > 100 µM (inactive) | > 100 µM (inactive) | > 100 µM (inactive) | > 100 µM (inactive) | > 100 µM (inactive) | – | > 100 µM (inactive) | > 100 µM (inactive) | > 100 µM (inactive) | > 100 µM (inactive) | > 100 µM (inactive) | – | –
6 | C=CCCCCCCCCCCCC1CCC(CC)N1 (stereo not given) | 4.06 µM (inactive) | 4.86 µM (inactive) | 3.78 µM (inactive) | 15.1 µM (inactive) | 20.6 µM (inactive) | 19.5 µM (inactive) | 16.3 µM (inactive) | 3.05 µM (inactive) | 28.5 µM (inactive) | 6.04 µM (inactive) | 8.3 µM (inactive) | 8.28 µM (inactive) | 13.8 µM (inactive) | 11.2 µM (inactive) | 11.2 µM (inactive) | 12.3 µM (inactive) | 11.4 µM (inactive) | – | –
7 | Cc1c(C)c2cc3c(=O)ccoc3c(C)c2oc1=O | 20.9 µM (inactive) | 25 µM (inactive) | 69.8 µM (inactive) | 57.1 µM (inactive) | 71.3 µM (inactive) | > 100 µM (inactive) | > 100 µM (inactive) | 50.2 µM (inactive) | 29.8 µM (inactive) | – | 44 µM (inactive) | > 100 µM (inactive) | > 100 µM (inactive) | – | 24.4 µM (inactive) | > 100 µM (inactive) | > 100 µM (inactive) | – | –
8 | CCCCCCCCCCCCCCCCOC(=O)c1cc(O)cc(C(=O)OCCCCCCCCCCCCCCCC)c1 | > 100 µM (inactive) | > 100 µM (inactive) | > 100 µM (inactive) | > 100 µM (inactive) | > 100 µM (inactive) | > 100 µM (inactive) | > 100 µM (inactive) | > 100 µM (inactive) | > 100 µM (inactive) | > 100 µM (inactive) | > 100 µM (inactive) | > 100 µM (inactive) | > 100 µM (inactive) | > 100 µM (inactive) | > 100 µM (inactive) | – | > 100 µM (inactive) | – | –
9 | Cc1cc(C)c(C(=O)/C(=C/c2ccccc2)c2ccccc2)c(C)c1 | 29 µM (inactive) | 46.2 µM (inactive) | 26.2 µM (inactive) | > 100 µM (inactive) | 76.2 µM (inactive) | – | 18.2 µM (inactive) | 27.5 µM (inactive) | 50.9 µM (inactive) | 34.8 µM (inactive) | 35.1 µM (inactive) | 37.1 µM (inactive) | 51.6 µM (inactive) | 36.8 µM (inactive) | 56.8 µM (inactive) | > 100 µM (inactive) | 60 µM (inactive) | – | –
10 | OCC1OC(n2nc(-c3ccccc3)nc2-c2cnccn2)C(O)C1O (stereo not given) | > 100 µM (inactive) | – | > 100 µM (inactive) | > 100 µM (inactive) | > 100 µM (inactive) | – | – | > 100 µM (inactive) | – | > 100 µM (inactive) | > 100 µM (inactive) | – | > 100 µM (inactive) | – | > 100 µM (inactive) | > 100 µM (inactive) | > 100 µM (inactive) | > 100 µM (inactive) | > 100 µM (inactive)
11 | Cc1cc(/C=C/c2cc[n+](C)c3ccccc23)c(O)c2ncccc12 | 0.646 µM (active) | 2.38 µM (inactive) | 1.77 µM (inactive) | 2.4 µM (inactive) | 0.973 µM (active) | 4.19 µM (inactive) | 2.8 µM (inactive) | 0.625 µM (active) | 1.87 µM (inactive) | 0.966 µM (active) | 0.181 µM (active) | 0.71 µM (active) | 0.991 µM (active) | 10.1 µM (inactive) | 6.67 µM (inactive) | 1.87 µM (inactive) | 0.619 µM (active) | – | –
12 | CCSC1=CC(Cc2ccc(OC)cc2)N(C(=O)OC)C1 (stereo not given) | > 100 µM (inactive) | 32.3 µM (inactive) | 52.6 µM (inactive) | > 100 µM (inactive) | > 100 µM (inactive) | > 100 µM (inactive) | > 100 µM (inactive) | 21.9 µM (inactive) | > 100 µM (inactive) | 52.2 µM (inactive) | 49.7 µM (inactive) | – | > 100 µM (inactive) | 86.5 µM (inactive) | > 100 µM (inactive) | > 100 µM (inactive) | 25.2 µM (inactive) | – | –
13 | Cc1nc(C)c(C(=O)Nc2cccc3c2C(=O)NC3=O)cc1C(=O)Nc1cccc2c1C(=O)NC2=O | > 100 µM (inactive) | > 100 µM (inactive) | > 100 µM (inactive) | > 100 µM (inactive) | > 100 µM (inactive) | > 100 µM (inactive) | > 100 µM (inactive) | > 100 µM (inactive) | > 100 µM (inactive) | > 100 µM (inactive) | > 100 µM (inactive) | > 100 µM (inactive) | > 100 µM (inactive) | > 100 µM (inactive) | > 100 µM (inactive) | > 100 µM (inactive) | > 100 µM (inactive) | – | –
14 | COC(=O)N/N=C(\C)c1c(O)cc(C)oc1=O | 18.5 µM (inactive) | – | – | > 100 µM (inactive) | 22.1 µM (inactive) | > 100 µM (inactive) | > 100 µM (inactive) | 45.2 µM (inactive) | > 100 µM (inactive) | 98.4 µM (inactive) | 46 µM (inactive) | – | 29.4 µM (inactive) | – | 40.1 µM (inactive) | 36.2 µM (inactive) | 25.9 µM (inactive) | – | –
15 | O=C1C2C3C=C4c5ccccc5N(c5ccccc5)C4(C2C(=O)N1c1ccc(Br)cc1)[C@H]1C(=O)N(c2ccc(Br)cc2)C(=O)[C@@H]31 (stereo not given in full) | 8.89 µM (inactive) | > 100 µM (inactive) | > 100 µM (inactive) | > 100 µM (inactive) | – | > 100 µM (inactive) | > 100 µM (inactive) | > 100 µM (inactive) | > 100 µM (inactive) | > 100 µM (inactive) | > 100 µM (inactive) | 3.41 µM (inactive) | > 100 µM (inactive) | 18.8 µM (inactive) | > 100 µM (inactive) | > 100 µM (inactive) | > 100 µM (inactive) | – | –
16 | COC(=O)[C@@]12OC[C@]34C([C@@H](O)C1O)[C@@]1(C)CC(=O)C(OC(=O)/C=C(/c5ccccc5)C(F)(F)F)=C(C)C1C[C@H]3OC(=O)[C@H](O)[C@H]42 (stereo not given in full) | 2.14 µM (inactive) | 16.9 µM (inactive) | 6.35 µM (inactive) | 7.89 µM (inactive) | 11.2 µM (inactive) | 0.52 µM (active) | 7.91 µM (inactive) | 1.16 µM (inactive) | 6.5 µM (inactive) | 8.63 µM (inactive) | 8.71 µM (inactive) | 2.06 µM (inactive) | 7.93 µM (inactive) | 20.1 µM (inactive) | 35.7 µM (inactive) | 12.4 µM (inactive) | – | – | –
17 | CC(C)S(=O)(=O)ON1C(=O)c2ccc([N+](=O)[O-])cc2C1=O | – | > 100 µM (inactive) | > 100 µM (inactive) | > 100 µM (inactive) | > 100 µM (inactive) | > 100 µM (inactive) | > 100 µM (inactive) | > 100 µM (inactive) | > 100 µM (inactive) | > 100 µM (inactive) | > 100 µM (inactive) | – | > 100 µM (inactive) | > 100 µM (inactive) | > 100 µM (inactive) | > 100 µM (inactive) | > 100 µM (inactive) | – | –
